Experimental data from patent US20120308537A1, “Use Of Collagen Type VII For Maintaining And Re-Inducing Osteogenic Abilities Of Mesenchymal Stem Cells” (UNIVERSITY OF SOUTHERN CALIFORNIA, priority 2009, published 2012).

Assays:
[1] = tested on: ALP, Runx2, BSP, OCN mRNA in MSCs; assay: Real-Time PCR analysis of osteogenic-specific gene expression in MSCs; type: cell-based, human
Experimental: In this experiment, MSCs were cultured in 6-well plates in growth medium until they reached confluence. Then, they were switched to osteogenic medium. Respective wells were treated with 1.0 μg/ml C7 until the indicated harvest days. Equal amounts of RNA were reverse transcribed and the mRNA levels of the indicated genes were analyzed using SYBR green master mix and primers for alkaline phosphotase (ALP), Runx2, bone sialoprotein (BSP), and osteocalcin (OCN). Data were normalized to house keeping gene GAPDH and expressed as fold-changes relative to 7D untreated cells. Results represent the mean+/−standard deviation of duplicate experiments with PCR performed in triplicates.
(§1) FIG. 9A is a scanned image of Alizarin staining (left) and its quantification (right). Here the MSCs were treated with 1.0 μg/ml C7 or 1.0 μg/ml C7 and 15 μM U0126 in the presence of an osteogenic medium for 21 days. In FIG. 9B, MSCs were cultured as in FIG. 9A. RNAs were collected after 14 days and subjected to RT-PCR analysis for early osteogenic gene markers. Results for staining represent mean values+/−standard deviation from experiments performed in quadruplicate. RT-PCR results represented the mean+/−standard deviation of duplicate experiments with PCR performed in triplicates. The […] inhibitor abolished C7-induced calcium deposition and expression of early osteogenic gene markers.

human MSCs [2] = assay: Alizarin red (AR) staining of MSCs in osteogenic medium (calcium accumulation and mineralization); type: cell-based
Experimental: Alizarin red (AR) staining is normally used to determine the calcium accumulation and mineralization that are associated with bone formation. Cells in the tissue culture dishes labeled C7 were incubated with osteogenic induction medium containing 1.0 μg/ml of C7. Cells in the tissue culture dishes labelled OST were incubated with osteogenic induction medium alone (controls).
FIG. 3A is the scanned image of Alizarin red staining (top) and its quantification (bottom).
FIG. 3B is the scanned image of Alizarin red staining (top) and its quantification (bottom). […] The results represent mean values+/−standard deviation from experiments performed in triplicates. Note that MSCs only need to be exposed to 0.6 μg/ml of C7 during days 8-12 to attain optimal osteogenic induction.
For these experiments, plated MSCs were plated at 3×10^5/per well on 6-well plates in MSC growth medium containing α-MEM containing 16.7% Premium FBS (Atlanta Biologicals Cat# S11550), and 2 mM L-Glutamine. After the cells reached 70% confluency, the medium was changed to osteogenic induction medium with or without 0.6 μg/ml C7 added at the time period indicated above.
Here the MSCs were treated with 4 μg/ml of NC1 for 21 days in an osteogenic medium. Results represent mean values+/−standard deviation from experiments performed in triplicates.
as §1

[3] = tested on: p-ERK (Ras-ERK signaling pathway); assay: Immunoblot analysis of ERK phosphorylation in MSCs under osteogenic conditions; type: cell-based, human
Experimental: (§2) In this experiment, cells were serum starved for 48 hours and then stimulated with osteogenic medium in the absence or presence of 1.0 μg/ml C7. Cellular extracts were prepared at the times indicated and then subjected to immunoblot analysis with antibodies shown above. Total ERK and paxillin are included to indicate equal protein loading.
In this experiment, cells were pretreated with the respective inhibitor for 1 hour before addition of 1.0 μg/ml C7. Regular ERK is included as a control for equal protein loading.

human MSCs [4] = assay: Alkaline phosphotase (ALP) staining of MSCs in osteogenic medium; type: cell-based; settings: 1.0 μg/ml C7, 14 days in osteogenic medium, vs osteogenic medium alone
Experimental: ALP measures the expression of a key marker enzyme that is needed for bone formation. The tissue culture dishes labeled C7 were treated with 1.0 μg/ml C7 whereas dishes label OST were the controls. The cells were incubated in an osteogenic medium for 14 days.

[5] = tested on: ectopic osteogenesis induction; assay: Histology analysis of ectopic osteogenesis induction (bone formation), intramuscular implantation in rat; type: in vivo; settings: 4 weeks
Experimental: (§3) The negative control was carrier only, which consisted of collagen sponge (bovine). The samples were administered to rat via intramuscular implantation on ectopic sites. The experiment lasted for 4 weeks. Two different preparations (C7 and C7′) were tested. The test dosages were: 10, 20 and 40 μg. The results were analyzed by alkaline phosphotase assay (ALP) and histology for bone formation.

late passage MSCs = assay: Alizarin red staining of late passage MSCs (exogenous C7 or lentiviral C7 over-expression); type: cell-based, human
Experimental: FIG. 5A is the scanned image of Alizarin red staining (top) and its quantification (bottom). Late passage MSCs (passage 8) were treated with 1.0 μg/ml of C7 in the presence of an osteogenic medium for 21 days.
FIG. 5B is the scanned image of Alizarin red staining (top) and its quantification (bottom). Late passage MSCs infected with lentiviral vectors expressing either green fluorescence protein (GFP) or C7 were subjected to osteogenic medium for 21 days. Results represent mean values+/−standard deviation from experiments performed in triplicates.
For these experiments, MSCs from passage 3 were infected with lentiviral vectors expressing either GFP or C7 and cultured for an additional 7 passages. Then infected MSCs (passage 10) were plated at 6 well-plates and then subjected to osteogenic induction medium.

MSCs = assay: Inducing and maintaining the osteogenicity of MSCs by C7 fragments (general statement); type: cell-based; settings: fragments of C7 containing the CMP subdomain
[6] = tested on: ectopic osteogenesis induction; assay: ALP assay of ectopic osteogenesis induction, intramuscular implantation in rat; type: in vivo; settings: 4 weeks
Experimental: as §3

p-P38 = assay: Immunoblot analysis of P38 phosphorylation in MSCs under osteogenic conditions; type: cell-based, human; settings: 1.0 μg/ml C7; serum starved 48 hours
Experimental: as §2

[7] = 1.0 μg/ml C7 and 15 μM U0126, 14 days
[8] = 1.0 μg/ml C7, normalized to GAPDH

N#CC(=C(/N)Sc1ccccc1N)/C(C#N)=C(\N)Sc1ccccc1N [U0126, reference compound]
mRNA expression of ALP in C7-treated MSCs [1, 7]: reduced
mRNA expression of BSP in C7-treated MSCs [1, 7]: reduced
AR staining of C7-treated MSCs (C7-mediated osteogenic induction) (human MSCs [2]; 1.0 μg/ml C7 and 15 μM U0126, 21 days): reduced
effect of inhibitor on C7-mediated induction of p-ERK ([3]; pretreated with inhibitor 1 hour before 1.0 μg/ml C7, proteins collected after 1 hour): Abrogated

type VII collagen [C7]
osteogenic potential of human MSCs as measured by ALP activity (human MSCs [4]): significantly enhances
Bone score ([5]; 10 ug C7 or C7′ + 1 ug BMP-2): 3
Bone score ([5]; 10 ug C7 or C7′, no BMP-2): 0
Bone score ([5]; 20 ug C7 or C7′ + 1 ug BMP-2): 0
Bone score ([5]; 20 ug C7 or C7′, no BMP-2): 0
Bone score ([5]; 40 ug C7 or C7′, no BMP-2): 0
BMP-2-mediated bone induction (ALP assay and histology) ([5]; low dosage 10 μg with BMP-2, rat intramuscular implantation): significantly enhance
ALP mRNA expression (early osteogenic marker) [1, 8]: upregulates
BSP mRNA expression (early osteogenic marker) [1, 8]: upregulates
OCN mRNA expression (late osteogenic marker) [1, 8]: upregulates
Runx2 mRNA expression (early osteogenic marker) [1, 8]: upregulates
restoring osteogenic potential of late passage MSCs (Alizarin red) (late passage MSCs; exogenous addition, 1.0 μg/ml C7, passage 8, 21 days): capable of restoring
restoring osteogenic potential of late passage MSCs (Alizarin red) (late passage MSCs; over-expression by lentiviral vector vs GFP, passage 10, 21 days): capable of restoring
effectiveness in inducing and maintaining the osteogenicity of MSCs (MSCs): relatively effective
osteogenic potential of human MSCs as measured by Alizarin red activity (human MSCs [2]; 1.0 μg/ml C7, 21 days in osteogenic medium, vs osteogenic medium alone): significantly enhances
concentration needed to attain optimal osteogenic induction (human MSCs [2]; exposure during days 8-12 only, osteogenic medium 21 days): 0.6 µg/mL
production of p-ERK ([3]; 1.0 μg/ml C7, as early as 10 minutes, sustained up to 1 hour, serum starved 48 hours): increased
ALP ([6]; 10 ug C7 or C7′ + 1 ug BMP-2): 0.257
ALP/Pro ([6]; 10 ug C7 or C7′ + 1 ug BMP-2): 2.360
ALP/Pro ([6]; 10 ug C7 or C7′, no BMP-2): 0.517
ALP ([6]; 10 ug C7 or C7′, no BMP-2, collagen sponge, intramuscular ectopic site): 0.094
ALP ([6]; 20 ug C7 or C7′ + 1 ug BMP-2): 0.384
ALP/Pro ([6]; 20 ug C7 or C7′ + 1 ug BMP-2): 1.893
ALP ([6]; 20 ug C7 or C7′, no BMP-2): 0.094
ALP/Pro ([6]; 20 ug C7 or C7′, no BMP-2): 0.500
ALP ([6]; 40 ug C7 or C7′, no BMP-2): 0.092
ALP/Pro ([6]; 40 ug C7 or C7′, no BMP-2): 0.364
level of p-P38 (p-P38): remained unchanged
